The source of these data is article PMC4550830, “Pheromone binding proteins enhance the sensitivity of olfactory receptors to sex pheromones in Chilo suppressalis” (Scientific Reports, 2015).

One may read the Kd as the constant that tells how readily two partners part at equilibrium. Low readings indicate tighter binding, high ones weaker binding.

The target of one assay is T1, CsupPBP3 (Chilo suppressalis, UniProt F6K0S3).
T1 sequence (F6K0S3 22-166): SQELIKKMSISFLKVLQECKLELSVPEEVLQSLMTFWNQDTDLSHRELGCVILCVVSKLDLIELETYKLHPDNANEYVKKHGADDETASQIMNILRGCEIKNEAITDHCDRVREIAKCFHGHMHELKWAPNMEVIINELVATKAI
Nature of the assay: Fluorescence binding assay (1-NPN titration and competitive displacement), CsupPBP3. The settings on record: 2 μM protein in 50 mM Tris-HCl titrated with 1-NPN, triplicates. As to the method: In order to measure the affinity of CsupPBP1–4 to the fluorescent probe N-phenyl-1-naphthylamine (1-NPN), a 2 μM solution of each CsupPBP in 50 mM Tris-HCl buffer was titrated with 1 mM 1-NPN in methanol to final concentrations of 2–16 μM. The affinities of CsupPBP1–4 to other ligands were measured in competitive binding assays, where a 2 μM solution of both CsupPBPs and 1-NPN was titrated with 1 mM methanol solutions of each lignd to final concentrations of 0.2–1.6 μM. The Prism software was used to analyse the data and plot the binding curves. The ability of ligand to compete with 1-NPN was measured in competitive binding assays, where a mixture of the protein and 1-NPN, both at the concentration of 2 μM were titrated with 0.1 mM or 1 mM solutions of each ligand to the final concentrations reported in the figures. Fluorescence intensities are reported as percent of the values measured in the absence of competitors. All experiments were performed in triplicates and mean values and standard errors are reported. Binding constants of competitors were calculated from the corresponding IC50 values using the equation: KD = [IC50]/1 + [1-NPN]/K1-NPN, [1-NPN] being the free concentration of 1-NPN and K1-NPN being the dissociation constant of the complex Protein/1-NPN.

Another assay concerns CsupPR4/CsupOrco. The assay is described as follows: Two-electrode voltage clamp recording from Xenopus oocytes coexpressing CsupPR4/CsupOrco. The assay is classed as cell-based, Chilo suppressalis. The source says: (§1) The ORFs encoding CsupPRs were amplified and cloned into pT7Ts vector using specific primers (Supplementary Table S1). The cRNAs of all CsupPRs were synthesized using mMESSAGE Mmachine T7 kit (Ambion, Austin, TX).
(§2) The entire coding region of each CsupOR was sub-cloned into the XhoI/NotI sites of pT7Ts vector (Invitrogen) (Kozak sequence added before the cutting site in forward primer). The cRNAs of all CsupPRs were synthesized using mMESSAGE Mmachine T7 kit (Ambion, Austin, TX).
(§3) Electrophysiological recordings were performed according to previously reported protocols. Mature healthy oocytes (stage V–VII) (Nasco, Salida, California) were treated with collagenase I(GIBCO, Carlsbad, CA) in washing buffer (96 mM NaCl, 2 mM KCl, 5 mM MgCl2, and 5 mM HEPES [pH = 7.6]) for about 1 h at room temperature. […]
(§4) Whole-cell currents were recorded from the injected Xenopus oocytes with a two-electrode voltage clamp. Odorant induced currents were recorded with an OC-725C oocyte clamp (Warner Instruments, Hamden, CT) at a holding potential of […]. […]
(§5) Data acquisition and analyses were carried out with Digidata 1440A and pCLAMP 10.2 software (Axon Instruments Inc., Union City, CA). Statistical comparison of responses of oocytes to the tested ligands and dose-response data were analysed by GraphPad Prism 5.0 (GraphPad Software Inc., San Diego, CA). […]

Another assay concerns CsupPR1/CsupOrco. Nature of the assay: Two-electrode voltage clamp recording from Xenopus oocytes coexpressing CsupPR1/CsupOrco. The settings on record: ligand 10^−4 mol/L, each of the four CsupPBPs versus DMSO alone. Type of assay: cell-based, Chilo suppressalis.
Text: as §1, §2, §3, §4, §5
Background: Two-electrode voltage clamp is typically applied to oocytes expressing channels or transporters.

The next assay concerns CsupPR6/CsupOrco. The assay is described as follows: Two-electrode voltage clamp recording from Xenopus oocytes coexpressing CsupPR6/CsupOrco. The assay is classed as cell-based, Chilo suppressalis. The settings on record: ligand 10^−4 mol/L; for Effect of PBPs on the response of PR6: each of the four CsupPBPs versus DMSO alone.
Text: as §1, §2
(§6) Electrophysiological recordings were performed according to previously reported protocols. Mature healthy oocytes (stage V–VII) (Nasco, Salida, California) were treated with collagenase I(GIBCO, Carlsbad, CA) in washing buffer (96 mM NaCl, 2 mM KCl, 5 mM MgCl2, and 5 mM HEPES [pH = 7.6]) for about 1 h at room temperature. After being cultured overnight at 18 °C, oocytes were microinjected with 27.6 ng CsupORs cRNA and 27.6 ng CsupOrco cRNA. After injection, oocytes were incubated for 4–7 days at 18 °C in 1X Ringer’s solution (96 mM NaCl, 2 mM KCl, 5 mM MgCl2, 0.8 mM CaCl2, and 5 mM HEPES [pH = 7.6]) supplemented with 5% dialysed horse serum, […].
(§7) Whole-cell currents were recorded from the injected Xenopus oocytes with a two-electrode voltage clamp. Odorant induced currents were recorded with an OC-725C oocyte clamp (Warner Instruments, Hamden, CT) at a holding potential of […]. All experiments on PR responses were performed in six replicates, those involving interactions with PBPs in four replicates.
(§8) Data acquisition and analyses were carried out with Digidata 1440A and pCLAMP 10.2 software (Axon Instruments Inc., Union City, CA). Statistical comparison of responses of oocytes to the tested ligands and dose-response data were analysed by GraphPad Prism 5.0 (GraphPad Software Inc., San Diego, CA).
(§9) Tested pheromone components and analogs were purchased from Nimrod Inc (Changzhou, China, purify 96%). they were dissolved in dimethyl sulfoxide (DMSO) to 1 M Stock solutions and stored at −20 °C. Before testing, the stock solutions were diluted with 1 X Ringer’s buffer (96 mM NaCl, 2 mM KCl, 5 mM MgCl2, 0.8 mM CaCl2 and 5 mM HEPES [pH = 7.6]).

The subject of another assay is CsupPR2/CsupOrco. The assay is described as follows: Two-electrode voltage clamp recording from Xenopus oocytes coexpressing CsupPR2/CsupOrco. Type of assay: cell-based, Chilo suppressalis.
Text: as §1, §2, §6, §7, §8, §9

[1] abbreviates: ligand 10^−4 mol/L, each of the four CsupPBPs versus receptor alone.

Molecules are shown by their SMILES. Several values for one entry are separate records, joined by “and”; a condition that tells them apart may be missing. Identical values can stand only once.

For `c1ccc(Nc2cccc3ccccc23)cc1` [1-NPN, N-phenyl-1-naphthylamine], the dissociation constant Kd on CsupPBP3 is ~3 µM and 3.1 µM.

In the case of `CCCC/C=C\CCCCCCCCO` [Z9–14:OH], the “Effect of PBPs on the response of PR4” value with CsupPR4/CsupOrco (setting [1]) is “inhibitory effect”. Moreover, in the assay with CsupPR1/CsupOrco, the “Effect of PBPs on the response of PR1” value is reported as “inhibitory effect”. Further, the “Effect of PBPs on the response of PR6” value is on record as “inhibitory effect” with CsupPR6/CsupOrco and “reduction of the signal” in the assay on CsupPR6/CsupOrco (listed as 4). In addition, the “Effect of PBPs on the response of PR2” value in the assay with CsupPR2/CsupOrco (setting [1]) is recorded as “inhibitory effect”.

Turning to `CCCCCC/C=C\CCCCCCCC=O` [Z9–16:Ald, (Z)-9-hexadecenal], the “Inward current response of PR4” value in the assay with CsupPR4/CsupOrco (ligand 0.1 mM, no PBP, n = 6) is “specifically tuned”.

`CCCC/C=C\CCCCCCCCCC=O` [Z11–16:Ald, (Z)-11-hexadecenal]: the “Response of PR6 in the presence of PBP4 compared with other PBPs” value in the assay on CsupPR6/CsupOrco (PBP4) is listed as “more strongly activated”. In the assay with CsupPR6/CsupOrco, the “Effect of PBPs on the response of PR6” value is listed as “increased”. For the same compound, the “Increase in sensitivity (EC50) of PR2 in the presence of PBP1” value with CsupPR2/CsupOrco (dose-response with versus without PBP1) was “to minor extents”. The “Increase in sensitivity (EC50) of PR2 in the presence of PBP2” value in the assay with CsupPR2/CsupOrco (dose-response with versus without PBP2) is “more than one order of magnitude”. For the same compound, the “Increase in sensitivity (EC50) of PR2 in the presence of PBP3” value in the assay with CsupPR2/CsupOrco (dose-response with versus without PBP3) is on record as “to minor extents”. Besides, the “Change in sensitivity (EC50) of PR2 in the presence of PBP4” value with CsupPR2/CsupOrco (dose-response with versus without PBP4) was “not affected”.
